Assay results published in the supplement of paper PMC10627819.

Assays:
Assay in all cases: fitness (endpoint OD595 vs no drug) (fraction); higher = more growth
[1] = tested on: S. aureus Newman
Outline: (§1)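 Fitness was measured as bacterial growth in 384-well plates inoculated at OD595 0.01 (30 µl, or 55 µl for S. pneumoniae). Media were TSB, LB Lennox or CY, at 37 °C. OD595 was read every 30 min for 14 h and background-subtracted against the first reading. Fitness is OD595 at the transition into stationary phase divided by the robust mean of no-drug control wells, capped at 1.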

[2] = tested on: B. subtilis 168
Outline: as §1

[3] = tested on: S. aureus DSM 20231
Outline: as §1

[4] = tested on: S. pneumoniae D39V
Outline: as §1
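Note: OD595 on entry to stationary phase over no-drug wells; at most 1.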

CCCCCCCCCC(=O)N[C@@H](Cc1c[nH]c2ccccc12)C(=O)N[C@H](CC(N)=O)C(=O)N[C@@H](CC(=O)O)C(=O)N[C@@H]1C(=O)NCC(=O)N[C@@H](CCCN)C(=O)N[C@@H](CC(=O)O)C(=O)N[C@H](C)C(=O)N[C@@H](CC(=O)O)C(=O)NCC(=O)N[C@H](CO)C(=O)N[C@@H]([C@H](C)CC(=O)O)C(=O)N[C@@H](CC(=O)c2ccccc2N)C(=O)O[C@@H]1C [Daptomycin] + N[C@@H]1CONC1=O [Cycloserine D]
fitness
Details	first compound 0.125 µg/mL	first compound 0.25 µg/mL	first compound 0.5 µg/mL	first compound 1 µg/mL	first compound 2 µg/mL
[1], partner 0.375 µg/mL	0.979	0.983	0.983	–	–
[1], partner 0.75 µg/mL	0.996	0.999	≥ 1	–	–
[1], partner 1.5 µg/mL	≥ 1	≥ 1	0.993	–	–
[2], partner 0.125 µg/mL	0.962	0.978	0.945	–	–
[2], partner 0.25 µg/mL	0.903	0.923	0.886	–	–
[2], partner 0.5 µg/mL	0.921	0.989	0.874	–	–
[3], partner 0.375 µg/mL	–	–	0.964	≥ 1	≥ 1
[3], partner 0.75 µg/mL	–	–	0.996	0.983	0.978
[3], partner 1.5 µg/mL	–	–	≥ 1	≥ 1	≥ 1

[2], first compound 1 µg/mL, one replicate
Details	fitness
partner 0.125 µg/mL	0.784
partner 0.25 µg/mL	0.758
partner 0.5 µg/mL	0.737

C[C@H]1COc2c(N3CCN(C)CC3)c(F)cc3c(=O)c(C(=O)O)cn1c23 [Levofloxacin] + CC1=C(C(=O)O)N2C(=O)[C@@H](NC(=O)[C@H](N)c3ccccc3)[C@H]2SC1 [Cephalexin]
Details	fitness
[2], first compound 0.0312 µg/mL, partner 0.125 µg/mL	0.0416
[2], first compound 0.0312 µg/mL, partner 0.25 µg/mL	0.0347
[2], first compound 0.0312 µg/mL, partner 0.5 µg/mL	0.036
[2], first compound 0.0625 µg/mL, partner 0.125 µg/mL	0.0518
[2], first compound 0.0625 µg/mL, partner 0.25 µg/mL	0.037
[2], first compound 0.0625 µg/mL, partner 0.5 µg/mL	0.043
[2], first compound 0.125 µg/mL, partner 0.125 µg/mL	0.0423
[2], first compound 0.125 µg/mL, partner 0.25 µg/mL	0.0386
[2], first compound 0.125 µg/mL, partner 0.5 µg/mL	0.0448
[4], first compound 0.1725 µg/mL, partner 2 µg/mL	0.176
[4], first compound 0.1725 µg/mL, partner 4 µg/mL	0.0529
[4], first compound 0.345 µg/mL, partner 2 µg/mL	0.103
[4], first compound 0.345 µg/mL, partner 4 µg/mL	0.001
[4], first compound 0.69 µg/mL, partner 1 µg/mL	0.235
[4], first compound 0.69 µg/mL, partner 2 µg/mL	0.0462
[4], first compound 0.69 µg/mL, partner 4 µg/mL	0.022

fitness, one replicate
Details	first compound 0.001 µg/mL	first compound 0.002 µg/mL	first compound 0.0039 µg/mL	first compound 0.2 µg/mL	first compound 0.4 µg/mL	first compound 0.8 µg/mL
[2], partner 0.25 µg/mL	0.969	0.896	0.836	–	–	–
[2], partner 0.5 µg/mL	0.991	0.91	0.838	–	–	–
[2], partner 1 µg/mL	0.921	0.919	0.868	–	–	–
[4], partner 0.125 µg/mL	–	–	–	0.874	0.758	0.316
[4], partner 0.25 µg/mL	–	–	–	0.91	0.782	0.354
[4], partner 0.5 µg/mL	–	–	–	0.903	0.8	0.369

C[C@H]1COc2c(N3CCN(C)CC3)c(F)cc3c(=O)c(C(=O)O)cn1c23 [Levofloxacin] + CO[C@@]12[C@H](COC(N)=O)C3=C(C(=O)C(C)=C(N)C3=O)N1C[C@@H]1N[C@@H]12 [Mitomycin C]
fitness, [4]
Details	first compound 0.1725 µg/mL	first compound 0.2 µg/mL	first compound 0.345 µg/mL	first compound 0.4 µg/mL	first compound 0.69 µg/mL	first compound 0.8 µg/mL
partner 0.001075 µg/mL	–	0.883	–	0.777	–	0.422
partner 0.002 µg/mL	0.817	–	0.699	–	0.404	–
partner 0.00215 µg/mL	–	0.871	–	0.769	–	0.362
partner 0.004 µg/mL	0.782	–	0.687	–	0.355	–
partner 0.0043 µg/mL	–	0.78	–	0.699	–	0.331
partner 0.008 µg/mL	0.694	–	0.595	–	0.387	–

CN(C)C(=O)C(CCN1CCC(O)(c2ccc(Cl)cc2)CC1)(c1ccccc1)c1ccccc1 [Loperamide] + CC(=O)NC[C@H]1CN(c2ccc(N3CCOCC3)c(F)c2)C(=O)O1 [Linezolid]
Details	fitness
[2], first compound 25 µg/mL, partner 0.125 µg/mL	0.607
[2], first compound 25 µg/mL, partner 0.25 µg/mL	0.066
[2], first compound 25 µg/mL, partner 0.5 µg/mL	0.0361
[2], first compound 50 µg/mL, partner 0.25 µg/mL	0.0362
[2], first compound 50 µg/mL, partner 0.5 µg/mL	0.0318
[2], first compound 100 µg/mL, partner 0.125 µg/mL	0.0357
[2], first compound 100 µg/mL, partner 0.25 µg/mL	0.0269
[2], first compound 100 µg/mL, partner 0.5 µg/mL	0.0353
[4], first compound 17.14 µg/mL, partner 0.2 µg/mL	0.815
[4], first compound 17.14 µg/mL, partner 0.4 µg/mL	0.709
[4], first compound 17.14 µg/mL, partner 0.8 µg/mL	0.414
[4], first compound 20 µg/mL, partner 0.105 µg/mL	0.938
[4], first compound 20 µg/mL, partner 0.21 µg/mL	0.839
[4], first compound 20 µg/mL, partner 0.42 µg/mL	0.652
[4], first compound 34.28 µg/mL, partner 0.2 µg/mL	0.806
[4], first compound 34.28 µg/mL, partner 0.4 µg/mL	0.701
[4], first compound 34.28 µg/mL, partner 0.8 µg/mL	0.367
[4], first compound 40 µg/mL, partner 0.105 µg/mL	0.947
[4], first compound 40 µg/mL, partner 0.21 µg/mL	0.843
[4], first compound 40 µg/mL, partner 0.42 µg/mL	0.58
[4], first compound 80 µg/mL, partner 0.42 µg/mL	0.179

one replicate
Details	fitness
[2], first compound 25 µg/mL, partner 0.0625 µg/mL	0.584
[2], first compound 50 µg/mL, partner 0.0625 µg/mL	0.0437
[2], first compound 100 µg/mL, partner 0.0625 µg/mL	0.0474
[4], first compound 68.57 µg/mL, partner 0.2 µg/mL	0.91
[4], first compound 68.57 µg/mL, partner 0.4 µg/mL	0.884
[4], first compound 68.57 µg/mL, partner 0.8 µg/mL	0.532

CN(C)C(=O)C(CCN1CCC(O)(c2ccc(Cl)cc2)CC1)(c1ccccc1)c1ccccc1 [Loperamide] + CO[C@@]12[C@H](COC(N)=O)C3=C(C(=O)C(C)=C(N)C3=O)N1C[C@@H]1N[C@@H]12 [Mitomycin C]
[4]
Details	fitness
first compound 17.14 µg/mL, partner 0.002 µg/mL	0.871
first compound 17.14 µg/mL, partner 0.004 µg/mL	0.796
first compound 17.14 µg/mL, partner 0.008 µg/mL	0.662
first compound 20 µg/mL, partner 0.001075 µg/mL	≥ 1
first compound 20 µg/mL, partner 0.00215 µg/mL	≥ 1
first compound 20 µg/mL, partner 0.0043 µg/mL	0.926
first compound 34.28 µg/mL, partner 0.002 µg/mL	0.843
first compound 34.28 µg/mL, partner 0.004 µg/mL	0.8
first compound 34.28 µg/mL, partner 0.008 µg/mL	0.616
first compound 40 µg/mL, partner 0.001075 µg/mL	≥ 1
first compound 40 µg/mL, partner 0.00215 µg/mL	≥ 1
first compound 40 µg/mL, partner 0.0043 µg/mL	0.953
first compound 80 µg/mL, partner 0.001075 µg/mL	0.804
first compound 80 µg/mL, partner 0.00215 µg/mL	0.801

[4], first compound 68.57 µg/mL, one replicate
Details	fitness
partner 0.002 µg/mL	0.814
partner 0.004 µg/mL	0.712
partner 0.008 µg/mL	0.672
